Data taken from patent US7094761B2, “Methods and compounds for prevention and treatment of elevated intraocular pressure and related conditions” (Theratechnologies Inc., priority 2002, dated 2006).

Test system: intraocular pressure in piglets
Conditions: for IC50: pig, in vivo; for effect on basal intraocular pressure: piglet, peptide in saline applied topically as drops, monitored for 15 min
Protocol: Method: Newborn pigs (1–3 days old) were anesthetized with 1.5% halothane for tracheostomy and catheterization of the right femoral vein for drug administration. Animals were ventilated by means of a Harvard small animal respirator with a gas mixture of 25% O2 and 75% N2. Halothane was discontinued after surgery and immediately thereafter the animals were sedated with Alpha-chloralose (50 mg/kg i.v.) and paralyzed with pancuronium (0.1 mg/kg i.v.). Animals were placed under radiant warmer to keep their body temperature at 37° C. A butterfly needle (24G) is inserted into the anterior chamber of both eyes and connected to a Statham pressure transducer connected to a Gould multichannel recorder. Intraocular pressure is then allowed to stabilize for 15 minutes. […] The intraocular pressure was monitored for 15 minutes at which time a maximal effect was observed.
Peptides dissolved in saline were applied to the eye after 15 min of stabilization of intraocular pressure and changes in pressure were monitored for 15 min. The deviation (negative for hypotension) was plotted as a function of time (min).
The experiments were done as above, except that intraocular pressure was plotted versus the dose of peptide used.

Row | Compound | IC50 [nM] | effect on basal intraocular pressure
1 | CC[C@H](C)[C@H](N)C(=O)N[C@@H](Cc1ccccc1)C(=O)N[C@@H](CC(=O)O)C(=O)N[C@@H](CO)C(=O)N[C@H](C(=O)N[C@@H](CCC(=O)O)C(=O)N[C@@H](CS)C(=O)N[C@@H](Cc1c[nH]c2ccccc12)C(=O)O)[C@@H](C)O [Peptide 1405, NH2-Ile Phe Asp Ser Thr Gln Cys Trp-OH] | 342 | produced a decrease in ocular pressure
2 | H-HIICSPLR-OH [Peptide 1402, NH2-His Ile Ile Cys Ser Pro Leu Arg-OH] | 86.4 | produced a decrease in ocular pressure
3 | NH2-Phe Ser Leu Thr Gln Lys Tyr Cys-OH (H-FSLTQKYC-OH) [Peptide 1401] |  | produced a decrease in ocular pressure
